The text below walks through data of patent US6953812B2, “Glucagon antagonists/inverse agonists” (Novo Nordisk, Inc., priority 2000, dated 2005).

The term IC50 denotes the concentration that inhibits the measured activity by half.

SMILES strings stand for the structures.

One assay concerns the target T1, human glucagon receptor (Homo sapiens, UniProt P47871).
T1 construct: expressed in transfected cells; host or cells: BHK (baby hamster kidney) cells, membrane preparation
In words: Glucagon Binding Assay (II). To be noted: membranes of BHK cells transfected with human glucagon receptor, 125I-glucagon, SPA; read-out: Glu Bd Assay (II) IC50. How it is done:
Glucagon Binding Assay (II)
BHK (baby hamster kidney cell line) cells are transfected with the human glucagon receptor and a membrane preparation of the cells is prepared.
All steps in the membrane preparation are kept on ice or performed at 4° C. BHK cells are harvested and centrifuged. The pellet is resuspended in homogenisation buffer (25 mM HEPES, pH=7.4, 2.5 mM CaCl2, 1.0 mM MgCl2, 250 mg/L bacitracin, 0.1 mM Pefabloc), homogenised 2×10 sec using Polytron 10-35 homogenizer (Kinematica) and added the same amount of homogenisation buffer as used for resuspension. After centrifugation (15 min at 2000×g) the supernatant is transferred to cold centrifuge tubes and centrifuged for 45 min at 40.000×g. The pellet is resuspended in homogenisation buffer, homogenised 2×10 sec (Polytron) and additional homogenisation buffer is added. The suspension is centrifuged for 45 min at 40.000×g and the pellet is resuspended in resuspension buffer (25 mM HEPES, pH=7.4, 2.5 mM CaCl2, 1.0 mM MgCl2) and homogenised 2×10 sec. (Polytron). […] Stabilisation buffer (25 mM HEPES, pH=7.4, 2.5 mM CaCl2, 1.0 mM MgCl2, 1% bovine serum albumin, 500 mg/L bacitracin, 2.5 M sucrose) is added and the membrane preparation is stored at −80° C.
The glucagon binding assay is carried out in opti plates (Polystyrene Microplates, Packard). 50 μL assay buffer (25 mM HEPES, pH=7.5, 2.5 mM CaCl2, 1.0 mM MgCl2, 0.003% Tween-20, 0.005% bacitracin, 0.05% sodium azide) and 5 μL glucagon or test compound (in DMSO) are added to each well. […] Finally 50 μL WGA beads containing 1 mg beads are transferred to the well. The opti plates are incubated for 4 hours on a shaker and then settled for 8-48 hours. The opti plates are counted in a Topcounter. Non-specific binding is determined with 500 nM of glucagon.

The target in a further assay is T2, human GIP receptor (Homo sapiens, UniProt P48546).
T2 construct: expressed in transfected cells; host or cells: BHK (baby hamster kidney) cells, membrane preparation
T2 sequence (P48546 22-466): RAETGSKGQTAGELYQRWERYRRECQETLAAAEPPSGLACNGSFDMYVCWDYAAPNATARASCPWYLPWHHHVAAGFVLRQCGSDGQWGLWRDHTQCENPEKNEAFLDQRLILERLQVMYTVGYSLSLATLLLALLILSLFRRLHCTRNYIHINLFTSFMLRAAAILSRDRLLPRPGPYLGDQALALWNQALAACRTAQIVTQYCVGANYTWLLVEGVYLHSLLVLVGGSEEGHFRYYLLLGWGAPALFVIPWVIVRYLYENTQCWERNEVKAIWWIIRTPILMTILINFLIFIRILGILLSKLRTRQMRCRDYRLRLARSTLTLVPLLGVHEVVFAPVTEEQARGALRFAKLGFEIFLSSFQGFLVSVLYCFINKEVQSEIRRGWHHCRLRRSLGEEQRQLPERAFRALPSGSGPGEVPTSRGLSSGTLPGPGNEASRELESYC
In words: GIP Binding Assay. As to conditions: membranes of BHK cells transfected with human GIP receptor, 125I-GIP, SPA; read-out: GIP Bd Assay IC50. The procedure: BHK (baby hamster kidney cell line) cells are transfected with the human GIP receptor and a membrane preparation of the cells is prepared.
All steps in the membrane preparation are kept on ice or performed at 4° C. BHK cells are harvested and centrifuged. The pellet is resuspended in homogenisation buffer (25 mM) HEPES, pH=7.4, 2.5 mM CaCl2, 1.0 mM MgCl2, 250 mg/L bacitracin, 0.1 mM Pefabloc), homogenised 2×10 sec using Polytron 10-35 homogenizer (Kinematica) and added the same amount of homogenisation buffer as used for resuspension. After centrifugation (15 min at 2000×g) the supernatant is transferred to cold centrifuge tubes and centrifuged for 45 min at 40.000×g. The pellet is resuspended in homogenisation buffer, homogenised 2×10 sec (Polytron) and additional homogenisation buffer is added. The suspension is centrifuged for 45 min at 40.000×g and the pellet is resuspended in resuspension buffer (25 mM HEPES, pH=7.4, 2.5 mM CaCl2, 1.0 mM MgCl2) and homogenised 2×10 sec. (Polytron). […] Stabilisation buffer (25 mM HEPES, pH=7.4, 2.5 mM CaCl2, 1.0 mM MgCl2, 1% bovine serum albumin, 500 mg/L bacitracin, 2.5 M sucrose) is added and the membrane preparation is stored at −80° C.
The GIP binding assay is carried out in opti plates (Polystyrene Microplates, Packard). 50 μL assay buffer (25 mM HEPES, pH=7.5, 2.5 mM CaCl2, 1.0 mM MgCl2, 0.003% Tween-20, 0.005% bacitracin, 0.05% sodium azide) and 5 μL GIP or test compound (in DMSO) are added to each well. […] Finally 50 μL WGA beads containing 1 mg beads are transferred to the well. The opti plates are incubated for 3.5 hours on a shaker and then settled for 8-48 hours. The opti plates are counted in a Top-counter. Non-specific binding is determined with 500 nM of GIP.

T1 sequence (P47871 26-477): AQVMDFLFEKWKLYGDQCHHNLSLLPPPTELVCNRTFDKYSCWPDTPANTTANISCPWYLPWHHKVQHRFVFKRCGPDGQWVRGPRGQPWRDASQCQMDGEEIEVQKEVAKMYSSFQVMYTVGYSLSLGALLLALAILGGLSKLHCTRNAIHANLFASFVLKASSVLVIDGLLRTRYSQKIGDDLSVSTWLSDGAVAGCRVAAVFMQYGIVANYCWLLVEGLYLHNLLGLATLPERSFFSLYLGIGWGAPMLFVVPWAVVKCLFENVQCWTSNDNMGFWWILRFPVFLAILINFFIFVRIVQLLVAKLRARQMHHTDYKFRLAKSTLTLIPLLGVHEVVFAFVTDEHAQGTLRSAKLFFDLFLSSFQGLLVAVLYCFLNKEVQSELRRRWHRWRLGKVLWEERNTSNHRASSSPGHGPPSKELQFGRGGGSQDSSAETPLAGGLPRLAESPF

As for `O=C(NC[C@@H](O)C(=O)O)c1ccc(CN(C(=O)Nc2cc(Br)cc(C(F)(F)F)c2)c2ccc(C3CCCCC3)cc2)cc1` [Example 12, (R)-3-{4-[3-(3-Bromo-5-trifluoromethylphenyl)-1-(4-cyclohexylphenyl)ureidomethyl]benzoylamino}-2-hydroxypropionic acid], the figures for the IC50 at human glucagon receptor and at human GIP receptor were 0.01 µM and 0.204 µM, respectively.
Consider `CC(C)(C)C1CCC(N(Cc2ccc(C(=O)NC[C@@H](O)C(=O)O)cc2)C(=O)c2csc3ccc(Cl)cc23)CC1` (stereo partly drawn) [Example 61, (R)-3-(4-{[(4-tert-Butylcyclohexyl)-(5-chlorobenzo[b]thiophene-3-carbonyl)amino]methyl}-benzoylamino)-2-hydroxypropionic acid], for which the IC50 at human glucagon receptor is 0.754 µM; at human GIP receptor, more than 3 µM.
For the compound `O=C(NC[C@@H](O)C(=O)O)c1ccc(CN(C(=O)CCc2cc(C(F)(F)F)cc(C(F)(F)F)c2)c2ccc(C3CCCCC3)cc2)cc1` [Example 72, (R)-3-(4-{[(3-(3,5-Bis(trifluoromethyl)phenyl)propionyl)-(4-cyclohexylphenyl)amino]methyl}benzoylamino)-2-hydroxypropionic acid], the figures for the IC50 at human glucagon receptor and at human GIP receptor were 0.542 µM and more than 3 µM, respectively.
`O=C(NC[C@@H](O)C(=O)O)c1ccc(CN(C(=O)Nc2cc(Cl)cc(Cl)c2)c2ccc(C3CCCCC3)cc2)cc1` [Example 27, (R)-3-{4-[1-(4-Cyclohexylphenyl)-3-(3,5-dichlorophenyl)ureidomethyl]benzoylamino}-2-hydroxypropionic Acid]: the IC50 at human glucagon receptor amounted to 0.0097 µM; on human GIP receptor it was 0.258 µM.
Take `O=C(NC[C@@H](O)C(=O)O)c1ccc(CN(C(=O)NCc2ccccc2-c2ccccc2)c2ccc(C3CCCCC3)cc2)cc1` [Example 36, 3-{4-[3-Biphenyl-2-ylmethyl-1-(4-cyclohexylphenyl)ureidomethyl]benzoylamino}-2(R)-hydroxypropionic acid]: the figures for the IC50 on human glucagon receptor and on human GIP receptor were 0.014 µM and 0.284 µM, respectively.
Turning to `CC(C)(C)C1CCC(N(Cc2ccc(C(=O)NC[C@@H](O)C(=O)O)cc2)C(=O)Cc2cc(F)cc(C(F)(F)F)c2)CC1` (stereo partly drawn) [Example 57, (R)-3-[4-({(4-tert-Butylcyclohexyl)-[2-(3-fluoro-5-trifluoromethylphenyl)acetyl]amino}methyl)benzoylamino]-2-hydroxypropionic acid], the 50% inhibitory concentration (IC50) at human glucagon receptor is 0.439 µM; on human GIP receptor it was more than 3 µM.
As to `O=C(NC[C@@H](O)C(=O)O)c1ccc(CN(C(=O)Nc2cccc(C(F)(F)F)c2)c2ccc(C3CCCCC3)cc2)cc1` [Example 5, (R)-3-{4-[1-(4-Cyclohexylphenyl)-3-(3-trifluoromethylphenyl)ureidomethyl]benzoylamino}-2-hydroxypropionic acid], the results for the IC50 on human glucagon receptor and at human GIP receptor were 0.026 µM and 0.519 µM, respectively.
For the compound `CSc1cccc(NC(=O)N(Cc2ccc(C(=O)NC[C@@H](O)C(=O)O)cc2)c2ccc(C3CCCCC3)cc2)c1` [Example 29, (R)-3-{4-[1-(4-Cyclohexylphenyl)-3-(3-methylsulfanylphenyl)ureidomethyl]benzoylamino}-2-hydroxypropionic Acid], the values for the IC50 at human glucagon receptor and on human GIP receptor were 0.024 µM and 0.623 µM, respectively.
With `O=C(NC[C@@H](O)C(=O)O)c1ccc(CN(CC(c2ccccc2)c2ccccc2)C(=O)Cc2cc(F)cc(C(F)(F)F)c2)cc1` [Example 58, (R)-3-[4-({(2,2-Diphenylethyl)-[2-(3-fluoro-5-trifluoromethylphenyl)acetyl]amino}methyl)benzoylamino]-2-hydroxypropionic acid], the IC50 on human glucagon receptor is 0.957 µM; on human GIP receptor, more than 3 µM.
In the case of `COc1cc(NC(=O)N(Cc2ccc(C(=O)NC[C@@H](O)C(=O)O)cc2)c2ccc(C3CCCCC3)cc2)cc(C(F)(F)F)c1` [Example 1, (R)-3-{4-[1-(4-Cyclohexylphenyl)-3-(3methoxy-5-trifluoromethylphenyl)ureidomethyl]benzoylamino}-2-hydroxypropionic acid], the results for the IC50 on human glucagon receptor and on human GIP receptor were 0.029 µM and 0.701 µM, respectively.
With `O=C(NC[C@@H](O)C(=O)O)c1ccc(CN(C(=O)Cc2cc(F)cc(C(F)(F)F)c2)c2ccc(C3CCCCC3)cc2)cc1` [Example 65, (R)-3-[4-({(4-Cyclohexylphenyl)-[(3-fluoro-5-trifluoromethylphenyl)acetyl]amino}methyl)benzoylamino]-2-hydroxypropionic acid], the IC50 at human glucagon receptor is 0.52 µM; at human GIP receptor, more than 3 µM.
Consider `CC(C)(C)C1CCC(N(Cc2ccc(C(=O)NC[C@@H](O)C(=O)O)cc2)C(=O)Nc2ccc(Cl)c(Cl)c2)CC1` (stereo partly drawn) [Example 41, (R)-3-{4-[1-(4-tert-Butylcyclohexyl)-3-(3,4-dichlorophenyl)ureidomethyl]benzoylamino}-2-hydroxypropionic acid], for which the IC50 is 0.133 µM on human glucagon receptor and 1.59 µM on human GIP receptor.
With `O=C(NC[C@@H](O)C(=O)O)c1ccc(CN(C(=O)Nc2cc(F)cc(F)c2)c2ccc(C3CCCCC3)cc2)cc1` [Example 55, (R)-3-{4-[1-(4-Cyclohexylphenyl)-3-(3,5-difluorophenyl)ureidomethyl]benzoylamino}-2-hydroxypropionic acid], the half-maximal inhibitory concentration (IC50) amounted to 0.05 µM at human glucagon receptor and 0.427 µM at human GIP receptor.
The matching figures for `O=C(NC[C@@H](O)C(=O)O)c1ccc(CN(C(=O)Nc2cccc(Cl)c2)c2ccc(C3=CCCCC3)cc2)cc1` [Example 20, (R)-3-{4-[3-(3-Chlorophenyl)-1-(4-cyclohex-1-enylphenyl)ureidomethyl]benzoylamino}-2-hydroxypropionic acid]: 0.052 µM and 0.693 µM.
The matching figures for `O=C(NC[C@@H](O)C(=O)O)c1ccc(CN(C(=O)Nc2ccc3c(c2)C(F)(F)OC(F)(F)O3)c2ccc(C3=CCCCC3)cc2)cc1` [Example 30, (R)-3-{4-[1-(4-Cyclohex-1-enylphenyl)-3-(2,2,4,4-tetrafluoro-4H-benzo[1,3]dioxin-6-yl)ureido-methyl]benzoylamino}-2-hydroxypropionic Acid]: 0.013 µM and 0.217 µM.
For `O=C(NC[C@@H](O)C(=O)O)c1ccc(CN(C(=O)Nc2ccc3c(c2)C(F)(F)OC(F)(F)O3)c2ccc(C3CCCCC3)cc2)cc1` [Example 43, (R)-3-{4-[1-(4-Cyclohexylphenyl)-3-(2,2,4,4-tetrafluoro-4H-benzo[1,3]dioxin-6-yl)ureidomethyl]benzoylamino}-2-hydroxypropionic acid], the IC50 at human glucagon receptor amounted to 0.017 µM; on human GIP receptor, 0.226 µM.
